Results on ten compounds are retold here after the SangsterLogP compilation.

Structures are written as SMILES.

A short description of this series: method code SF-AS, from DOI: 10.1080/01483918708066826.

A word on the logP: it is the decadic logarithm of the partition coefficient of the neutral form, usually between octanol and water. Read a low logP as lower lipophilicity. Consider `O=C(O)C(c1ccc(Cl)cc1)n1cccc1` (stereo not given), for which the logP was 2.3.
`O=C(O)C(Cc1ccc(O)cc1)n1cccc1` (stereo not given) showed a logP of 1.56.
Under `O=C(O)C(Cc1ccc(Cl)cc1)n1cccc1` (stereo not given) stands 2.08.
Turning to `O=C(O)Cn1cccc1`, the logP was 0.7.
To `O=C(O)Cc1ccc(-n2cccc2)cc1` belongs 0.76; to `O=C(O)C(c1ccccc1F)n1cccc1` (stereo not given), 2.49.
To `O=C(O)C(Cc1ccccc1)n1cccc1` (stereo not given) belongs 2.34; to `O=C(O)C(c1ccccc1)n1cccc1` (stereo not given), 1.57.
Under `O=C(O)C(Cc1ccc(F)cc1)n1cccc1` (stereo not given) stands 2.04.
`O=C(O)c1ccccc1-n1cccc1` returned a logP of 2.04.
